Reference: US10273218B2, “BCL-3 inhibitors” (University College Cardiff Consultants Limited, priority 2014, dated 2019)

What was measured:
[1] = tested on: human colorectal cell lines (SW480); assay: mouse Model 4 (tumour growth at transplantation site), SW480; type: in vivo, mice; conditions: 3.5 mg/kg intraperitoneal injection daily; SW480 subcutaneous; caliper tumour volume
Experimental: (§1) In all experiments, each compound was administered by intraperitoneally at 3.5 mg/kg.
Another model (Model 4) studied the effect of the compound's ability to inhibit the growth of tumour cells at the transplantation site. Human tumour cell lines were injected subcutaneously into recipient mice, followed 2 days later by single daily intraperitoneal injections of a compound (3.5 mg/kg in 1% DMSO) for the entire course of the experiment. Tumour burden was monitored longitudinally for up to 12 weeks in vivo by palpation and caliper measurements of tumour volume, and subsequently histology performed on tumours at the end of the experiment.
Model 4 tested the effect of compounds of the application to inhibit the growth of tumour cells at the transplantation site. Human tumour cell lines were injected subcutaneously into recipient mice, followed 2 days later by single daily intraperitoneal injections of Bcl3 inhibitor (3.5 mg/kg in 1% DMSO) for the entire course of the experiment. Tumour burden was monitored longitudinally for up to 12 weeks in vivo by palpation and caliper measurements of tumour volume, and subsequently histology performed on tumours at the end of the experiment.
FIGS. 6 and 7 show the comparative effect of compound 12 (3.5 mg/kg intraperitoneal injection) on Model 4 in human breast cancer (MDA-MB-231) and human colorectal cell lines (SW480), respectively.

[2] = tested on: NF-κB activity in MDA-MB-231 cells; assay: NF-kB luciferase assay, EGF-induced NF-kB activity; type: cell-based, human; conditions: 1 micromolar, 20 hours, then 100 ng/ml EGF for 3 hours
Experimental: MDA-MB-231 is a highly metastatic, human basal epithelial cell line isolated from the pleural effusion of an adenocarcinoma. The cells are ‘triple negative’ as they lack estrogen, progesterone and ERBB2 receptor and they strongly over-express EGFR. The expression of receptors in this line has been confirmed by the host laboratory.
For NF-κB luciferase assays, cells are seeded into clear bottom black 96-well plates (Corning Inc., Lowell, US) in antibiotic free culture media in appropriate density. After about 20-24 hrs, cells are transfected with 10 ng of 3×κB luciferase plasmid and 10 ng of pcDNA3.1-Lacl plasmid per well. […]
After 48 hrs post-transfection with luciferase reporter plasmid, the media is aspirated and cells are lyzed using 50 μl/well of Glo-lysis buffer (Promega, Southampton, UK). […] Subsequently, 30 μl/well of Bright-Glo luciferase substrate (Promega, Southampton, UK) is added to the original plate and is assayed immediately for luminescence activity. The luminescence produced from either reaction is read using a Fluorostar Optima plate reader (BMG tabtech, Bucks, UK). […]
After 48 hrs post-transfection with luciferase reporter plasmid, the media was aspirated and cells were lyzed using 50 μl/well of Glo-lysis buffer (Promega, Southampton, UK). […] The luminescence produced from either reaction was read using a Flurostar Optima plate reader (BMG tabtech, Bucks, UK). […]

[3] = tested on: human breast cancer MDA-MB-231 xenograft; assay: in vivo metastasis mouse Model 1 (seeding and early colonization of circulating tumour cells); parameters: species or system mice; conditions: 3.5 mg/kg intraperitoneally daily; MDA-MB-231
Experimental: as §1
One model (Model 1) studied the effect of the compound's ability to inhibit the seeding and early colonization of circulating tumour cells at distal sites, most commonly in the lungs and liver. Human tumour cell lines were injected into the bloodstream of recipient mice, followed by single daily intraperitoneal injections of the compound (3.5 mg/kg in 1% DMSO) for 10 consecutive days. Tumour burden was monitored longitudinally for up to 8 weeks in vivo by live luminescence imaging, and subsequently histology performed on affected organs at the end of the experiment.
Model 1 tested the effect of Bcl3i compounds to inhibit the seeding and early colonization of circulating tumour cells at distal sites, most commonly in the lungs and liver. Human tumour cell lines were injected into the bloodstream of recipient mice, followed by single daily intraperitoneal injections of Bcl3 inhibitor (3.5 mg/kg in 1% DMSO) for 10 consecutive days. Tumour burden was monitored longitudinally for up to 8 weeks in vivo by live luminescence imaging, and subsequently histology performed on affected organs at the end of the experiment.
The X axis represents the number of days after xenograft and the Y axis is the relative luminescence of the thoracic region by Xenon IVIS scanning of mice following injection of d-luciferin for 10 minutes.
MDA-MB-231 human breast cancer cells were used in each of the three xenograft models of metastatic breast cancer.

COc1ccc(C(=O)Nc2ccccc2C(=O)NCCN2CCOCC2)c(F)c1 [Compound 12, 2-fluoro-4-methoxy-N-(2-((2-morpholinoethyl)carbamoyl)phenyl) benzamide]
average tumour growth at the transplantation site [1]: significant reductions in average tumour growth
greater suppression of NF-kB activity as compared to reference compound A [2]: 25%
suppression of EGF induced NF-kB activity ([2]; MDA-MB-231 NF-kB promoter luciferase reporter): 100%
effect on tumour cell seeding at distal sites (FIG. 8) [3]: most profound effect
